Experimental data reported in patent US4977189A, “Substituted guanidinedicarbonyl derivatives” (American Cyanamid Company, priority 1988, dated 1990).
Values joined by “and” are separate entries in the source; they are usually repeats but may differ in a detail not shown here. Identical values can stand only once. Values belong to the compound of their own block, whether it stands above or below them.

Tests used:
Swiss-Webster mice = test: Passive Avoidance Anoxic Induced Amnesia Test; format: in vivo, mouse (Swiss-Webster, middle-aged); details: 50 mg/kg intraperitoneally, 30 minutes prior to training and testing; latency vs saline control; 30% considered active
Description: Another in vivo test associated with decreased neural function in mammals is the Passive-Avoidance Anoxic-Induced-Amnesia Test. This test is used to determine the attenuation of anoxic induced amnesia in mice treated with drug, as compared to saline treated control animals with no drug.
A shock-motivated, single trial, step-through passive avoidance procedure is used. Groups of 25 Swiss-Webster, middle-aged mice (9 months of age) are placed singly in the front chamber of a 2-chamber box and are allowed to voluntarily cross into the rear chamber. As soon as the mouse enters the rear chamber, a door automatically traps the animal and a mild electric shock (0.4 mA for 4 seconds) is delivered to its feet. Following the foot shock, the mice are initially placed in an anoxic environment (0% oxygen) for 12 seconds, which quickly induces unconsciousness. They are then placed in a hypoxic environment (15% oxygen) for four minutes which prolongs the oxygen deprived state, maintaining unconsciousness. All testing is performed 24 hours later, and in all cases the mice appear fully recovered from the previous anoxic/hypoxic treatment. All test compounds are administered intraperitoneally at a dose of 10-200 mg/kg, 30 minutes prior to training and testing. […]
The latency to enter the rear chamber is recorded for both training and testing. […]

Royal Hart mice = test: Hypoxic Survival Test; format: in vivo, mouse (Royal Hart); details: Mus musculus, ip, 5 min, 30 minutes prior, 10% oxygen, survival after 5 minutes, read-out: % Survivors; for responders at 50 mg/kg: 50 mg/kg intraperitoneally; for responders at 100 mg/kg: 100 mg/kg intraperitoneally
Method: A useful in vivo test that measures how effectively central nervous system-acting drugs enhance survival in a hypoxic environment, presumably by improving the ratio of energy supply to demand is known as the Hypoxic Survival Test. […] Drugs are tested by intraperitoneally injecting groups of mice 30 minutes prior to placing them in a hypoxic mixture and measuring survival. The rationale of this test is that drugs which enhance survival under hypoxic conditions without concomitant, depression or sedative side effects, may do so by enhancing energy metabolism, or by preserving normal brain function under conditions of reduced energy metabolism. Given the dependence of the brain on a constant supply of energy, drugs which have this property may have many far-reaching therapeutic indications, including recovery from stroke and closed head injury, as well as reducing the deleterious effects of the aging central nervous system.
Groups of 20 Royal Hart mice (6 weeks of age) are injected intraperitoneally with test compound (1-200 mg/kg) 30 minutes prior to placing them in a hypoxic mixture (10% oxygen in 90% […]) and measuring survival after 5 minutes.
A separate group of 20 mice is injected intraperitoneally with saline solution (0.01 cc/g of body weight) and processed as described above.
Still another group of 20 mice is injected intraperitoneally with 0.125 mg/kg of physostigmine and processed as described above.

[1] = tested on: Brain-Specific Receptors (3H-benzodiazepine binding); test: Inhibition of the Binding of 3H-Benzodiazepine to Brain-Specific Receptors of Rats; set-up: species or system rat (male albino, Wistar strain; whole cortex); details: 3H-diazepam (1.5 nM) or 3H-flunitrazepam (1.0 nM); rat cortex P2-fraction; 30 minutes in ice; test concentration not given
Description: A test utilized for the determination of anxiolytic activity is the measurement of the ability of test compounds to inhibit the binding of tritiated benzodiazepines to brain-specific recptors of warm-blooded animals. A modification of the method described by R. F. Squires, et al., Nature, 266, No. 21, pg 732 (April, 1977) and H. Mohler, et al., Science, 198, pg 849 (1977) was employed.
Male albino rats (Wistar strain, weighing 150-200 g each) were used. The test compounds were solubilized in either dimethylformamide, acetic acid, ethanol or hydrochloric acid.
Whole cortex of rats was homogenized gently in 20 volumes of ice-cold 0.32M sucrose, centrifuged twice at 1000 g for 10 minutes and then recentrifuged at 30,000 g for 20 minutes to produce a crude P2 -synaptosomal fraction. The P2 -fraction was either: (1) resuspended in twice the original volume in hypotonic 50 mM Tris.HCl (pH 7.4), or (2) resuspended in one-half the original volume in hypotonic 10 mM Tris.HCl (pH 7.4) and frozen (-20° C.) until time of use. Frozen P2 preparations were thawed and resuspended in four times the original homogenizing volume at time of assay.
The binding assay consisted of 300 μl of the P2 -fraction suspension (0.2-0.4 mg protein), 100 μl of test drug and 100 μl of ^3 H-diazepam (1.5 nM, final concentration) or ^3 H-flunitrazepam (1.0 nM, final concentration) which was added to 1.5 ml of 50 mM Tris.HCl (pH 7.4). Non-specific binding controls and total binding controls d 100 μl of diazepam (3 μM final concentration) and 100 μl of deionized water, respectively, in place of the test compound. Incubation for 30 minutes proceeded in ice and was terminated by filtration, under vacuum, through glass fiber filters. The filters were washed twice with 5 ml of ice-cold 50 mM Tris.HCl (pH 7.4) and placed in scintillation vials. After drying at 50°-60° C. for 30 minutes, 10 ml of diluent was added and the radioactivity determined in a scintillation counter.
Inhibition of binding was calculated by the difference between total binding and binding in the presence of test compound, divided by the total binding, X 100.

SMILES: NC(=O)c1ccc(N=C(NC(=O)c2ccccc2)NC(=O)c2ccccc2)cc1 [N,N'-[[[4-(Aminocarbonyl)phenyl]imino]methylene]bis[benzamide]]
- % Improvement (Swiss-Webster mice): 50% and 54%
- responders at 50 mg/kg (Royal Hart mice): 40%
- responders at 100 mg/kg (Royal Hart mice): 62%
- responders at 200 mg/kg (Royal Hart mice; 200 mg/kg intraperitoneally): 47%

SMILES: COc1ccc(C(=O)NC(=NC(=O)c2cccs2)Nc2cccc(C(N)=O)c2)cc1 [N-[[[3-(Aminocarbonyl)phenyl]amino][(4-methoxybenzoyl)amino]methylene]-2-thiophenecarboxamide]
- % Inhibition [1]: 19%
- responders at 50 mg/kg (Royal Hart mice): 45%
- responders at 100 mg/kg (Royal Hart mice): 45%

- % Inhibition [1]: 14%
SMILES: COc1ccc(C(=O)NC(=NC(=O)c2ccsc2)Nc2ccc(C(N)=O)cc2)cc1 [N-[[[4-(Aminocarbonyl)phenyl]amino][(4-methoxybenzoyl)amino]methylene]-3-thiophenecarboxamide]

SMILES: Cc1cccc(C(=O)N=C(NC(=O)c2cccc(C)c2)Nc2ccc(C(N)=O)cc2)c1 [N,N'-[[4-(Aminocarbonyl)phenyl]carbonimidoyl]bis[3-methylbenzamide]]
- % Inhibition [1]: 25%
- responders at 50 mg/kg (Royal Hart mice): 40%
- responders at 100 mg/kg (Royal Hart mice): 43%

- % Inhibition [1]: 57%
SMILES: Cc1ccc(C(=O)N=C(NC(=O)c2ccc(Br)cc2)Nc2ccc(C(N)=O)cc2)cc1 [N-[[[4-(Aminocarbonyl)phenyl]amino][(4-bromobenzoyl)amino]methylene]-4-methylbenzamide]
